# Test results as given in patent publication US11192921B2 (priority 2017, dated 2021).
# Several values for one entry are separate records, joined by “and”; a condition that tells them apart may be missing. Identical values can stand only once. Like-named read-outs stand apart in the source and are kept apart here. Marks after values point to notes of the source that are not given here. No end group written: not given here.
# Key:
# Kunming mice [1] = format: in vivo
# SD rats = assay: pain threshold of trigeminal nerve (trigeminal neuralgia model); format: in vivo; conditions: for highest pain threshold on the operative side / pain threshold on the opposite side: 3 h after injection; for Pain threshold: intraperitoneal
# Female Kunming mice [2] = system: Female Kunming mice
# Kunming mice [3] = conditions: mouse, in vivo
# male BALB/c mice [4] = assay: cancer-induced pain (CIP) model, thermosensitive test; format: in vivo; conditions: heat radiation stimulation
# Procedure: Influence of Analgesic Polypeptides on Neuralgia in a Cancer-Induced Pain (CIP) Model
# A number of male BALB/c mice each weighing 25-30 g were used.
# Von Fery monofilament; a microsyringe, 5 mg/mL solutions of polypeptides I, II and II I; normal saline.
# (§1) BALB/c mice were taken, and the right sciatic nerve was exposed; ascites containing 5×10^4 Meth A sarcoma cells were injected into the proximal nerve near the sciatic nerve trochanter far from the tendon branch of the posterior biceps, the wound was closed, and the same volume of normal saline was injected into the left side by performing a sham operation.
# 1.3.1 Thermosensitive Test
# On the 4th, 7th, 10th and 14th days after inoculation, the latency of foot lifting caused by heat radiation stimulation to animals was observed, and the heat radiation intensity was adjusted to cause the latency of foot lifting of normal mice to be (10±2) s.
# All data was expressed as M±SD and subjected to one-way ANOVA.
# male BALB/c mice [5] = assay: cancer-induced pain (CIP) model, gross behavior; format: in vivo; conditions: 14th day after inoculation
# Procedure: as §1
# On the 4th, 7th, 10th and 14th days after inoculation, spontaneous pain and foot drop and the like occurred before the occurrence of thermal sensitivity and mechanical pain sensitivity behaviors, […]
# Female Kunming mice [6] = system: Female Kunming mice; remark: listed apart in the source
# Female Kunming mice [7] = system: Female Kunming mice; remark: listed apart in the source
# Female Kunming mice [8] = format: in vivo
# [9] = 50 μg/kg, injected subcutaneously
# [10] = 100 μg/kg, injected subcutaneously
sequence,measurement,setting,value
GSCSTPPSAVLYC (cysteine pairing not given here) [Polypeptide II],Pain threshold (tail flick),Kunming mice [1]; 0 min,2.43 ± 0.21^∧ s
same,Pain threshold (tail flick),Kunming mice [1]; 15 min,2.52 ± 0.24 s
same,Pain threshold (tail flick),Kunming mice [1]; 30 min,2.31 ± 0.36 s
same,Pain threshold (tail flick),Kunming mice [1]; 45 min,2.45 ± 0.12 s
same,Pain threshold (tail flick),Kunming mice [1]; 60 min,2.12 ± 0.41 s
same,Pain threshold (tail flick),Kunming mice [1]; 75 min,2.23 ± 0.14^∧ s
same,Pain threshold (tail flick),Kunming mice [1]; 90 min,2.24 ± 0.12 s
same,animal reaction thresholds,"SD rats; 50 μg/kg and 100 μg/kg, injected subcutaneously",significantly increased
same,time the pain thresholds lasted,SD rats; [9],1 h
same,highest pain threshold on the operative side,SD rats; [9],2.3 ± 0.5 g
same,pain threshold on the opposite side,SD rats; [9],1.2 ± 0.2 g
same,time the effect on the operative side lasted,SD rats; [10],about 8 h
same,highest pain threshold on the operative side,SD rats; [10],7.4 ± 0.9 g
same,pain threshold on the opposite side,SD rats; [10],3.2 ± 1.3 g
same,pain threshold change,"SD rats; 300 μg/kg, subcutaneously",not significantly increased
same,Pain threshold,"SD rats; Dose 50 (μg/kg), 0 h",25.56 ± 0.65 s
same,Pain threshold,"SD rats; Dose 50 (μg/kg), 1 h",25.23 ± 0.44 s
same,Pain threshold,"SD rats; Dose 50 (μg/kg), 2 h",26.62 ± 0.56 s
same,Pain threshold,"SD rats; Dose 50 (μg/kg), 3 h",26.46 ± 0.62 s
same,Pain threshold,"SD rats; Dose 50 (μg/kg), 4 h",27.15 ± 0.56 s
same,Pain threshold,"SD rats; Dose 50 (μg/kg), 5 h",26.62 ± 0.13 s
same,Pain threshold,"SD rats; Dose 100 (μg/kg), 0 h",25.87 ± 0.23 s
same,Pain threshold,"SD rats; Dose 100 (μg/kg), 1 h",26.12 ± 0.62 s
same,Pain threshold,"SD rats; Dose 100 (μg/kg), 2 h",27.16 ± 0.32 s
same,Pain threshold,"SD rats; Dose 100 (μg/kg), 3 h",27.65 ± 0.32 s
same,Pain threshold,"SD rats; Dose 100 (μg/kg), 4 h",26.23 ± 0.62 s
same,Pain threshold,"SD rats; Dose 100 (μg/kg), 5 h",25.13 ± 0.32 s
same,Pain threshold,"SD rats; Dose 300 (μg/kg), 0 h",26.41 ± 0.66 s
same,Pain threshold,"SD rats; Dose 300 (μg/kg), 1 h",30.12 ± 0.56 s
same,Pain threshold,"SD rats; Dose 300 (μg/kg), 2 h",30.61 ± 0.62 s
same,Pain threshold,"SD rats; Dose 300 (μg/kg), 3 h",29.52 ± 0.95 s
same,Pain threshold,"SD rats; Dose 300 (μg/kg), 4 h",28.62 ± 0.61 s
same,Pain threshold,"SD rats; Dose 300 (μg/kg), 5 h",27.92 ± 0.61 s
same,Movement duration of mice in forced swimming tests,Female Kunming mice [2]; 1 h,19.47 ± 1.32^ s
same,Movement duration of mice in forced swimming tests,Female Kunming mice [2]; 24 h,19.03 ± 2.48 s
same,Movement duration of mice in forced swimming tests,Female Kunming mice [2]; Time 0,20.98 ± 1.28 s
same,toxic side effects compared with the conotoxin (forced swimming),"Female Kunming mice [2]; mouse, in vivo, ip",lower toxic side effects
same,analgesic effects in formalin-induced pain experiments,Kunming mice [3],good analgesic effects
same,"cumulative foot licking time, Phase I",Kunming mice [3],48.20 ± 11.31*^
same,"cumulative foot licking time, Phase II",Kunming mice [3],40.53 ± 14.32
same,Latency of foot lifting before administration,male BALB/c mice [4]; before administration,10.12 ± 1.64
same,Latency (D) of foot lifting after administration,male BALB/c mice [4]; day 4,9.87 ± 0.78
same,Latency (D) of foot lifting after administration,male BALB/c mice [4]; day 7,8.75 ± 0.89
same,Latency (D) of foot lifting after administration,male BALB/c mice [4]; day 10,8.31 ± 0.92
same,Latency (D) of foot lifting after administration,male BALB/c mice [4]; day 14,6.56 ± 0.56
same,left foot lifting behavior,male BALB/c mice [5],obviously observed
same,Movement distances of mice in open field tests,Female Kunming mice [6]; 1 h,19.47 ± 1.32^
same,Movement distances of mice in the center area in open field tests,Female Kunming mice [6]; 1 h,19.47 ± 1.32^
same,Movement distances of mice in the peripheral area in open field tests,Female Kunming mice [6]; 1 h,19.47 ± 1.32^
same,Number of entrances to the center area in open field tests,Female Kunming mice [6]; 1 h,19.47 ± 1.32^
same,Number of entrances to the peripheral area in open field tests,Female Kunming mice [6]; 1 h,19.47 ± 1.32^
same,Residence time in the center area in open field tests,Female Kunming mice [6]; 1 h,19.47 ± 1.32^ s
same,Residence time in the peripheral area in open field tests,Female Kunming mice [6]; 1 h,19.47 ± 1.32^ s
same,Movement distances of mice in open field tests,Female Kunming mice [6]; 24 h,19.03 ± 2.48 m
same,Movement distances of mice in the center area in open field tests,Female Kunming mice [6]; 24 h,19.03 ± 2.48 m
same,Movement distances of mice in the peripheral area in open field tests,Female Kunming mice [6]; 24 h,19.03 ± 2.48 m
same,Number of entrances to the center area in open field tests,Female Kunming mice [6]; 24 h,19.03 ± 2.48
same,Number of entrances to the peripheral area in open field tests,Female Kunming mice [6]; 24 h,19.03 ± 2.48
same,Residence time in the center area in open field tests,Female Kunming mice [6]; 24 h,19.03 ± 2.48 s
same,Residence time in the peripheral area in open field tests,Female Kunming mice [6]; 24 h,19.03 ± 2.48 s
same,Movement distances of mice in open field tests,Female Kunming mice [6]; Time 0,20.98 ± 1.28 m
same,Movement distances of mice in the center area in open field tests,Female Kunming mice [6]; Time 0,20.98 ±1.28 m
same,Movement distances of mice in the peripheral area in open field tests,Female Kunming mice [6]; Time 0,20.98 ± 1.28 m
same,Number of entrances to the center area in open field tests,Female Kunming mice [6]; Time 0,20.98 ± 1.28
same,Number of entrances to the peripheral area in open field tests,Female Kunming mice [6]; Time 0,20.98 ± 1.28
same,Residence time in the center area in open field tests,Female Kunming mice [6]; Time 0,20.98 ± 1.28 s
same,Residence time in the peripheral area in open field tests,Female Kunming mice [6]; Time 0,20.98 ± 1.28 s
same,side effects compared with conotoxin (open field),"Female Kunming mice [6]; mouse, in vivo, ip",lower side effects
same,various indexes in open field experiments compared with the normal saline group,"Female Kunming mice [6]; mouse, in vivo, ip",no significant difference
same,Duration of the immobility of mice in tail suspension tests,Female Kunming mice [7]; 1 h,19.47 ± 1.32^ s
same,Duration of the immobility of mice in tail suspension tests,Female Kunming mice [7]; 24 h,19.03 ± 2.48 s
same,Duration of the immobility of mice in tail suspension tests,Female Kunming mice [7]; Time 0,20.98 ± 1.28 s
same,data of tail suspension test compared with the normal saline group,"Female Kunming mice [7]; mouse, in vivo, ip",no significant difference
same,toxic side effects compared with the conotoxin (tail suspension),"Female Kunming mice [7]; mouse, in vivo, ip",lower toxic side effects
same,Pain threshold,Female Kunming mice [8]; 0 min,27.43 ± 0.54^∧ s
same,Pain threshold,"Female Kunming mice [8]; mouse, in vivo, ip",42.54 ± 0.24^∧ s and 22.33 ± 0.36 s and 27.45 ± 0.52 s and 31.34 ± 0.45*^∧ s and 25.43 ± 0.54^∧ s and 26.24 ± 0.42 s
same,heat thresholds of mice compared with the normal saline negative control group,"Female Kunming mice [8]; mouse, in vivo, ip",effectively increase the heat thresholds of mice
same,increase of the pain threshold compared with the normal saline group and the conotoxin group,"Female Kunming mice [8]; mouse, in vivo, ip",significantly higher
